Assay results from US10174016B2 (BAYER AKTIENGESELLSCHAFT, priority 2014, dated 2019).
Where two headings read alike, the source gives them in different places.

Experiments:
[1] = biological target: human P2X2/3 receptor (Homo sapiens (Human), UniProt P56373+Q9UBL9); experiment: Intracellular calcium measurement (FLIPR, Fluo-4) of antagonist activity at human P2X2/3 receptors; assay type: cell-based; settings: human P2X2/3, FLIPR calcium assay, agonist α,β-Me-ATP; read-out: hP2X2/3 IC50
Description: (§1) Intracellular Calcium Measurement to Assess Antagonist Activity at Human P2X3 and Human P2X2/3 Receptors
(§2) A fluorescent imaging plate reader (FLEX/FLIPR station; Molecular Devices) was used to monitor intracellular calcium levels using the calcium-chelating dye Fluo-4 (Molecular Probes). […] Cells expressing purinergic receptors P2X3 (human) or P2X2/3 (human) were plated at a density of 15,000 cells/well in collagen-coated 384-well plates approximately 20 hours before beginning the assay. […] The test compound was added in a volume of 5 μl and allowed to incubate for 30 min at 37° C. The final assay DMSO concentration is 1%. The agonist, α,β-Me-ATP, was added in a volume of 20 μl at a concentration representing the EC80 value. The fluorescence was measured for an interval of 90 sec at 2 sec intervals and analyzed based on the increase in peak relative fluorescence units (RFU) compared to the basal fluorescence. Peak fluorescence was used to determine the response to agonist obtained at each concentration of test compound by the following equation: % Response=100*(RFU(test compound)−RFU(control)/RFU(DMSO)−RFU(control))
(§3) The Examples were tested in triplicates per plate and mean values were plotted in Excel XLFit to determine IC50 values at the human P2X3 and human P2X2/3 receptors, percentage of maximal inhibition and the Hill coefficients.

[2] = biological target: human P2X3 receptor (Homo sapiens (Human), UniProt P56373); experiment: Intracellular calcium measurement (FLIPR, Fluo-4) of antagonist activity at human P2X3 receptors; assay type: cell-based; settings: read-out: hP2X3 IC50
human P2X3 receptor, sequence (P56373 whole entry): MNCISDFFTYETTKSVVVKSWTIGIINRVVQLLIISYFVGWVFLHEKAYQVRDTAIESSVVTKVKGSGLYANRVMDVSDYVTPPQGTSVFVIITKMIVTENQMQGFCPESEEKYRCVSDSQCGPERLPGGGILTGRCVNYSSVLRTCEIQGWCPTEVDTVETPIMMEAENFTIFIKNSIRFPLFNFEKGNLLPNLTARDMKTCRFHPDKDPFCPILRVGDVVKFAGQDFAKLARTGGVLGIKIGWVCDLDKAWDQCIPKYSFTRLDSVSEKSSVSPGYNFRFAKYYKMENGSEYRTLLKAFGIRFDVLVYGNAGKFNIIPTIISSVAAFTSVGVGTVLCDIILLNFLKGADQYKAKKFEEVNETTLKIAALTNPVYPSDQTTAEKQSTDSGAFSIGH
Description: as §1, §2, §3

[3] = human P2X3, FLIPR calcium assay, agonist α,β-Me-ATP

human P2X2/3 receptor, sequence (P56373 whole entry): as above
human P2X2/3 receptor, sequence (Q9UBL9 whole entry): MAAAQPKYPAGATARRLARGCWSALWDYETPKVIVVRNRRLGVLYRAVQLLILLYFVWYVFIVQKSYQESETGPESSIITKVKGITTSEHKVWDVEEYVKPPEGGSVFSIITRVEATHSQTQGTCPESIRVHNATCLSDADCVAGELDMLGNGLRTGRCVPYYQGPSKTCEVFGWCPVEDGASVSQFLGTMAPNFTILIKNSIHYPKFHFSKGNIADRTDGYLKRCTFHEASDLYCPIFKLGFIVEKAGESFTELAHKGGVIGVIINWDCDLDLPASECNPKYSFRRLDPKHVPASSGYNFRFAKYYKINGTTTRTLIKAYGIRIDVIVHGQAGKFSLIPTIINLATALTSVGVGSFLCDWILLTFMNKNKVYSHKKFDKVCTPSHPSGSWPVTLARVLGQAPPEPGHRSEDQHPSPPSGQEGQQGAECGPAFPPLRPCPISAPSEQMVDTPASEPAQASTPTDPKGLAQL

SMILES | IC50 [1] [nM] | IC50 [2, 3] [nM] | IC50 [2] [nM]
Cc1cnc(-c2cc(OCC3CC3)cc(C(=O)NC(C)c3ncc(F)cc3Cl)c2)s1 (racemic) [Example 5, N-[1-(3-Chloro-5-fluoropyridin-2-yl)ethyl]-3-(cyclopropylmethoxy)-5-(5-methyl-1,3-thiazol-2-yl)benzamide] | 346 | 16 | –
Cc1cnc(-c2cc(OC3COC3)cc(C(=O)NC(C)c3nnc(C(F)(F)F)s3)c2)s1 (single isomer, unassigned) [Example 193, 3-(5-Methyl-1,3-thiazol-2-yl)-5-(oxetan-3-yloxy)-N-{1-[5-(trifluoromethyl)-1,3,4-thiadiazol-2-yl]ethyl}benzamide] | ≥ 10000 | 2710 | –
Cc1cnc(-c2cc(OC3COC3)cc(C(=O)NC(C)c3nnc(C(F)(F)F)s3)c2)s1 (single isomer, unassigned) [Example 194, 3-(5-Methyl-1,3-thiazol-2-yl)-5-(oxetan-3-yloxy)-N-{1-[5-(trifluoromethyl)-1,3,4-thiadiazol-2-yl]ethyl}benzamide] | 579 | 46 | –
Cc1cnc(-c2cc(OC[C@]3(F)CCCNC3)cc(C(=O)NC(C)c3cnc(C(F)(F)F)nc3)c2)s1 (single isomer, unassigned) [Example 355] | 956 | 9 | –
Cc1cnc(-c2cc(OCC3CCOC3)cc(C(=O)NC(C)c3ncc(F)cc3Cl)c2)s1 (stereo in doubt) [Example 69, N-[1-(3-Chloro-5-fluoropyridin-2-yl)ethyl]-3-(5-methyl-1,3-thiazol-2-yl)-5-[(3R)-tetrahydrofuran-3-ylmethoxy]benzamide] | 937 | 15 | –
Cc1cnc(-c2cc(OCC3CN(C(C)C)CCO3)cc(C(=O)N[C@H](C)c3cnc(C(F)(F)F)nc3)c2)s1 (stereo in doubt) [Example 382, 3-(5-methyl-1,3-thiazol-2-yl)-5-{[(2R)-4-(propan-2-yl)morpholin-2-yl]methoxy}-N-{(1R)-1-[2-(trifluoromethyl)pyrimidin-5-yl]ethyl}benzamide] | 432 | 13 | –
Cc1ccc(CNC(=O)c2cc(OCC3CC3)cc(-c3ncc(C)s3)c2)nn1 [Example 2, 3-(Cyclopropylmethoxy)-N-[(6-methylpyridazin-3-yl)methyl]-5-(5-methyl-1,3-thiazol-2-yl)benzamide] | 251 | 19 | –
Cc1cnc(CNC(=O)c2cc(OCC3CC3)cc(-c3ncc(C)s3)c2)cn1 [Example 3, 3-(Cyclopropylmethoxy)-N-[(5-methylpyrazin-2-yl)methyl]-5-(5-methyl-1,3-thiazol-2-yl)benzamide] | 1110 | 26 | –
Cc1ncc([C@@H](C)NC(=O)c2cc(OCC3CC3)cc(-c3ncc(C)s3)c2)cn1 [Example 10, 3-(Cyclopropylmethoxy)-N-[(1R)-1-(2-methylpyrimidin-5-yl)ethyl]-5-(5-methyl-1,3-thiazol-2-yl)benzamide] | 185 | 7 | –
Cc1cnc(CNC(=O)c2cc(O[C@@H]3CCOC3)cc(-c3ncc(C)s3)c2)cn1 [Example 12, N-[(5-methylpyrazin-2-yl)methyl]-3-(5-methyl-1,3-thiazol-2-yl)-5-[(3R)-tetrahydrofuran-3-yloxy]benzamide] | ≥ 10000 | – | 283
C#CCOc1cc(C(=O)NCc2ncc(Cl)cc2F)cc(-c2ncc(C)s2)c1 [Example 32, N-[(5-Chloro-3-fluoropyridin-2-yl)methyl]-3-(5-methyl-1,3-thiazol-2-yl)-5-(prop-2-yn-1-yloxy)benzamide] | – | 24 | –
C#CCOc1cc(C(=O)N[C@H](C)c2ccc(C)nn2)cc(-c2ncc(C)s2)c1 [Example 37, N-[(1R)-1-(6-Methylpyridazin-3-yl)ethyl]-3-(5-methyl-1,3-thiazol-2-yl)-5-(prop-2-yn-1-yloxy)benzamide] | 1180 | – | –
Cc1ccc([C@@H](C)NC(=O)c2cc(OC3COC3)cc(-c3ncc(C)s3)c2)cn1 [Example 51, N-[(1R)-1-(6-methylpyridin-3-yl)ethyl]-3-(5-methyl-1,3-thiazol-2-yl)-5-(oxetan-3-yloxy)benzamide] | 1390 | – | –
Cc1ccc(CNC(=O)c2cc(OC[C@@H]3CCCO3)cc(-c3ncc(C)s3)c2)nn1 [Example 54, N-[(6-Methylpyridazin-3-yl)methyl]-3-(5-methyl-1,3-thiazol-2-yl)-5-[(2S)-tetrahydrofuran-2-ylmethoxy]benzamide] | ≥ 10000 | – | –
Cc1cnc(-c2cc(OC3CCOCC3)cc(C(=O)N[C@H](C)c3ccc(C(F)(F)F)nn3)c2)s1 [Example 89, 3-(5-Methyl-1,3-thiazol-2-yl)-5-(tetrahydro-2H-pyran-4-yloxy)-N-{(1R)-1-[6-(trifluoromethyl)pyridazin-3-yl]ethyl}benzamide] | 199 | – | –
Cc1cnc(-c2cc(OC3CCNCC3)cc(C(=O)N[C@H](C)c3cnc(C(F)(F)F)nc3)c2)s1 [Example 138, 3-(5-Methyl-1,3-thiazol-2-yl)-5-(piperidin-4-yloxy)-N-{(1R)-1-[2-(trifluoromethyl)pyrimidin-5-yl]ethyl}benzamide] | 559 | – | –
Cc1cnc(-c2cc(OC3(C)COC3)cc(C(=O)N[C@H](C)c3cnc(C(F)(F)F)nc3)c2)s1 [Example 156, 3-[(3-methyloxetan-3-yl)oxy]-5-(5-methyl-1,3-thiazol-2-yl)-N-{(1R)-1-[2-(trifluoromethyl)pyrimidin-5-yl]ethyl}benzamide] | 163 | – | –
Cc1cnc(-c2cc(OCCn3cncn3)cc(C(=O)N[C@H](C)c3cnc(C(F)(F)F)nc3)c2)s1 [Example 159, 3-(5-methyl-1,3-thiazol-2-yl)-5-[2-(1H-1,2,4-triazol-1-yl)ethoxy]-N-{(1R)-1-[2-(trifluoromethyl)pyrimidin-5-yl]ethyl}benzamide] | 1230 | – | –
Cc1cnc(-c2cc(OC[C@H]3COCCO3)cc(C(=O)N[C@H](C)c3ccc(C(F)(F)F)nc3)c2)s1 [Example 177, 3-[(2R)-1,4-dioxan-2-ylmethoxy]-5-(5-methyl-1,3-thiazol-2-yl)-N-{(1R)-1-[6-(trifluoromethyl)pyridin-3-yl]ethyl}benzamide] | 887 | – | –
Cc1cnc(-c2cc(OCC34CNC(CO3)C4)cc(C(=O)N[C@H](C)c3cnc(C(F)(F)F)nc3)c2)s1 (stereo partly drawn) [Example 407, 3-(5-Methyl-1,3-thiazol-2-yl)-5-[2-oxa-5-azabicyclo[2.2.1]hept-1-ylmethoxy]-N-{(1R)-1-[2-(trifluoromethyl)pyrimidin-5-yl]ethyl}benzamide] | – | 15 | –

Further lines, with some results ahead:

IC50 [1] [nM] | IC50 [2, 3] [nM] | SMILES | IC50 [2] [nM]
38 | 4 | Cc1cnc(-c2cc(OCC3CC3)cc(C(=O)NC(C)c3ncc(Cl)cc3F)c2)s1 (racemic) [Example 6, N-[1-(5-Chloro-3-fluoropyridin-2-yl)ethyl]-3-(cyclopropylmethoxy)-5-(5-methyl-1,3-thiazol-2-yl)benzamide] | –
87 | 5 | Cc1cnc(-c2cc(OC3CCNC(C(F)(F)F)C3)cc(C(=O)N[C@H](C)c3cnc(C(F)(F)F)nc3)c2)s1 (single isomer, unassigned) [Example 207] | –
89 | 2 | Cc1cnc(-c2cc(OC3CCNC(C(F)(F)F)C3)cc(C(=O)N[C@H](C)c3cnc(C(F)(F)F)nc3)c2)s1 (single isomer, unassigned) [Example 208] | –
98 | 9 | Cc1cnc([C@@H](C)NC(=O)c2cc(OCC3CC3)cc(-c3ncc(C)s3)c2)cn1 [Example 4, 3-(Cyclopropylmethoxy)-N-[(1R)-1-(5-methylpyrazin-2-yl)ethyl]-5-(5-methyl-1,3-thiazol-2-yl)benzamide] | –
106 | 8 | Cc1cnc(-c2cc(OCC3CC3)cc(C(=O)N[C@H](C)c3nnc(C)s3)c2)s1 [Example 7, 3-(Cyclopropylmethoxy)-N-[(1R)-1-(5-methyl-1,3,4-thiadiazol-2-yl)ethyl]-5-(5-methyl-1,3-thiazol-2-yl)benzamide] | –
90 | 3 | Cc1ccc([C@@H](C)NC(=O)c2cc(OCC3CC3)cc(-c3ncc(C)s3)c2)nn1 [Example 8, 3-(Cyclopropylmethoxy)-N-[(1R)-1-(6-methylpyridazin-3-yl)ethyl]-5-(5-methyl-1,3-thiazol-2-yl)benzamide] | –
145 | 7 | Cc1cnc(-c2cc(OCC3CC3)cc(C(=O)N[C@H](C)c3ccc(C(F)(F)F)nn3)c2)s1 [Example 9, 3-(Cyclopropylmethoxy)-5-(5-methyl-1,3-thiazol-2-yl)-N-{(1R)-1-[6-(trifluoromethyl)pyridazin-3-yl]ethyl}benzamide] | –
39 | – | Cc1cc(Oc2cc(C(=O)N[C@H](C)c3ccc(C(F)(F)F)nn3)cc(-c3ncc(C)s3)c2)ccn1 [Example 105, 3-[(2-Methylpyridin-4-yl)oxy]-5-(5-methyl-1,3-thiazol-2-yl)-N-{(1R)-1-[6-(trifluoromethyl)pyridazin-3-yl]ethyl}benzamide] | –
130 | – | Cc1cnc(-c2cc(OC3CCOCC3)cc(C(=O)N[C@H](C)c3cnc(C(F)F)nc3)c2)s1 [Example 154, N-{(1R)-1-[2-(difluoromethyl)pyrimidin-5-yl]ethyl}-3-(5-methyl-1,3-thiazol-2-yl)-5-(tetrahydro-2H-pyran-4-yloxy)benzamide] | –
